Measurements reported in ChEMBL document CHEMBL4387721, “Proteolysis targeting chimeras (PROTACs) in 'beyond rule-of-five' chemical space: Recent progress and future challenges” (Bioorg Med Chem Lett, 2019).
Values belong to the compound of their own block, whether it stands above or below them.

Columns and labels:
Format in all cases: cell-based
[1] = target: Protein cereblon/Histone acetyltransferase KAT2B (Homo sapiens) (UniProt Q92831+Q96SW2); experiment: Protac activity at CRBN/PCAF in human THP1 cells assessed as induction of PCAF protein degradation incubated for 18 hrs by Western blot analysis relative to control
[2] = target: Protein cereblon/Histone acetyltransferase KAT2A (Homo sapiens) (UniProt Q92830+Q96SW2); experiment: Protac activity at CRBN/GCN5 in human THP1 cells assessed as induction of GCN5 protein degradation at 1 nM incubated for 18 hrs by Western blot analysis relative to control
[3] = target: Protein cereblon/Bromodomain-containing protein 4 (Homo sapiens) (UniProt O60885+Q96SW2); experiment: Protac activity at Cereblon/BRD4 in human MV411 cells assessed as induction of BRD4 protein degradation at 1 uM incubated for 18 hrs by immunoblot analysis relative to control
[4] = Protac activity at CRBN/FKBP12 F36V mutant (unknown origin) expressed in human 293FT cells assessed as induction of FKBP12 F36V mutant protein degradation incubated for 4 hrs by Western blot analysis
Homo sapiens = organism: Homo sapiens; experiment: Protac activity at CRBN/FKBP12 F36V mutant (unknown origin) expressed in human 293FT cells assessed as induction of FKBP12 F36V mutant protein degradation incubated for 4 hrs by Western blot analysis relative to control
[5] = target: T1, von Hippel-Lindau disease tumor suppressor/Bromodomain-containing protein 4 (Homo sapiens, UniProt O60885+P40337); experiment: Protac activity at VHL/BRD4 in human HeLa cells assessed as induction of BRD4 protein degradation at 50 nM up to 36 hrs by Western blot analysis relative to control
[6] = target: T2, Protein cereblon/Tyrosine-protein kinase BTK (Homo sapiens, UniProt Q06187+Q96SW2); experiment: Protac activity at CRBN/BTK in human Ramos cells assessed as induction of BTK protein degradation at 300 nM incubated for 24 hrs by Western blot analysis relative to control
[7] = target: T2, Protein cereblon/Tyrosine-protein kinase BTK; experiment: Protac activity at CRBN/BTK in human Ramos cells assessed as induction of BTK protein degradation incubated for 24 hrs by Western blot analysis
[8] = target: T3, Estrogen receptor/E3 ubiquitin-protein ligase XIAP (Homo sapiens, UniProt P03372+P98170); experiment: Protac activity at ERalpha/XIAP in human MCF7 cells assessed as induction of ERalpha degradation at 100 nM by Western blot analysis relative to control
[9] = target: T3, Estrogen receptor/E3 ubiquitin-protein ligase XIAP; experiment: Protac activity at ERalpha/XIAP in human MCF7 cells assessed as induction of ERalpha degradation after 4 hrs by Western blot analysis
[10] = target: T1, von Hippel-Lindau disease tumor suppressor/Bromodomain-containing protein 4; experiment: Protac activity at VHL/BRD4 in human 22Rv1 cells assessed as induction of BRD4 protein degradation incubated for 16 hrs by Western blot analysis relative to control
[11] = target: von Hippel-Lindau disease tumor suppressor/Bromodomain-containing protein 2 (Homo sapiens, UniProt P25440+P40337); experiment: Protac activity at VHL/BRD2 in human 22Rv1 cells assessed as induction of BRD2 protein degradation incubated for 16 hrs by Western blot analysis
[12] = target: T4, von Hippel-Lindau disease tumor suppressor/Steroid hormone receptor ERR1 (Homo sapiens, UniProt P11474+P40337); experiment: Protac activity at VHL/ERRalpha in epoxomicin pre-treated human MCF7 cells assessed as induction of ERRalpha protein degradation incubated for 8 hrs by Western blot analysis
Target sequence in this assay (P11474 whole entry): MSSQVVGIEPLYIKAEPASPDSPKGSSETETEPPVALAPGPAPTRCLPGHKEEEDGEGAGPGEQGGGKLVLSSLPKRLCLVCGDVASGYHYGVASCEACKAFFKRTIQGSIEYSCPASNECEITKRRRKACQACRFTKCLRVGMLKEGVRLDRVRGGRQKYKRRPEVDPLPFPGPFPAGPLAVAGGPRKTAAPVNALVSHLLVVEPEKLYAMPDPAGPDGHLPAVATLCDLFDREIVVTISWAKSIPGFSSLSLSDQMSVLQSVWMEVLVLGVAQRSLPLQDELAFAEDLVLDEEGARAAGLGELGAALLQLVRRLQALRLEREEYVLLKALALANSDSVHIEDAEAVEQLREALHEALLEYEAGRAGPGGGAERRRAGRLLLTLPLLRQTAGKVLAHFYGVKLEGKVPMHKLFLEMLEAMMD
Target sequence in this assay (P40337 whole entry): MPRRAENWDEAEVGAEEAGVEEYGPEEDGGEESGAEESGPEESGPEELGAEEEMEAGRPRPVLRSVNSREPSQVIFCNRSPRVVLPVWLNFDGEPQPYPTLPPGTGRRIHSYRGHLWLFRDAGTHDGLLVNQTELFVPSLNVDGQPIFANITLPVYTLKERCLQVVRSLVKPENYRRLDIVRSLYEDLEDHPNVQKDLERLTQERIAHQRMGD

[13] = target: T4, von Hippel-Lindau disease tumor suppressor/Steroid hormone receptor ERR1; experiment: Protac activity at VHL/ERRalpha in epoxomicin pre-treated human MCF7 cells assessed as induction of ERRalpha protein degradation at 1 uM incubated for 8 hrs by Western blot analysis relative to control
Target sequence in this assay (P11474 whole entry, looked up): as the sequence (P11474 whole entry) above
Target sequence in this assay (P40337 whole entry, looked up): as the sequence (P40337 whole entry) above

[14] = target: T5, Protein cereblon/Cyclin-dependent kinase 9 (Homo sapiens, UniProt P50750+Q96SW2); experiment: Protac activity at CRBN/CDK9 in human HCT116 cells assessed as induction of CDK9 protein degradation at 20 uM after 6 hrs by Western blot analysis relative to control
Target sequence in this assay (P50750 whole entry, looked up): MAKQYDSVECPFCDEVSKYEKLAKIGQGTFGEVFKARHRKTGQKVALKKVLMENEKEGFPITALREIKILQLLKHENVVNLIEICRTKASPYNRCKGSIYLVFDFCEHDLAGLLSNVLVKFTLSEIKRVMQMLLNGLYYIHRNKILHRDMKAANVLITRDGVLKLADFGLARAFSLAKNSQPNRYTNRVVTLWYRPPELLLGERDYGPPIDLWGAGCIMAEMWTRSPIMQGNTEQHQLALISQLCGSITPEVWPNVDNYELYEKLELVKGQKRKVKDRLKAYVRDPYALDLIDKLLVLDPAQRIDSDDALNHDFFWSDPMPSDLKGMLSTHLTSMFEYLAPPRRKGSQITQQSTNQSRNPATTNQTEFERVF
Target sequence in this assay (Q96SW2 whole entry, looked up): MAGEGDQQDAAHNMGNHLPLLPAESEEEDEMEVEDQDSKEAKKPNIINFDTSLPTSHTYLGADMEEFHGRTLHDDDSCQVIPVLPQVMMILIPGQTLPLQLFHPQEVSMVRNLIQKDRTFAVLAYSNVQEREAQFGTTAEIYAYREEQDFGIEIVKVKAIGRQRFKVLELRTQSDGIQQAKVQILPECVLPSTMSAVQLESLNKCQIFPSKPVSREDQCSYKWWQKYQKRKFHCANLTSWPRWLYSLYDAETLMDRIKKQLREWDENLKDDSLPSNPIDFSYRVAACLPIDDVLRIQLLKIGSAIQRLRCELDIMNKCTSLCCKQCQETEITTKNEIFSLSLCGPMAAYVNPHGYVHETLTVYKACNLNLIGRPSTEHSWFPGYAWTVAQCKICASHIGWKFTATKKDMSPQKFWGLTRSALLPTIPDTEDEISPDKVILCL

[15] = target: T5, Protein cereblon/Cyclin-dependent kinase 9; experiment: Protac activity at CRBN/CDK9 in human MOLT4 cells assessed as induction of CDK9 protein degradation after 6 hrs by Western blot analysis
Target sequence in this assay (P50750 whole entry): as the sequence (P50750 whole entry, looked up) above
Target sequence in this assay (Q96SW2 whole entry): as the sequence (Q96SW2 whole entry, looked up) above

[16] = target: T5, Protein cereblon/Cyclin-dependent kinase 9; experiment: Protac activity at CRBN/CDK9 in human MOLT4 cells assessed as induction of CDK9 protein degradation after 6 hrs by Western blot analysis relative to control
Target sequence in this assay (P50750 whole entry, looked up): as the sequence (P50750 whole entry, looked up) above
Target sequence in this assay (Q96SW2 whole entry, looked up): as the sequence (Q96SW2 whole entry, looked up) above

T1 sequence (P40337 whole entry, looked up, other chains not shown): as the sequence (P40337 whole entry) above
Protein cereblon/Histone acetyltransferase KAT2A (Homo sapiens), sequence (Q92830 2-837 limits assumed): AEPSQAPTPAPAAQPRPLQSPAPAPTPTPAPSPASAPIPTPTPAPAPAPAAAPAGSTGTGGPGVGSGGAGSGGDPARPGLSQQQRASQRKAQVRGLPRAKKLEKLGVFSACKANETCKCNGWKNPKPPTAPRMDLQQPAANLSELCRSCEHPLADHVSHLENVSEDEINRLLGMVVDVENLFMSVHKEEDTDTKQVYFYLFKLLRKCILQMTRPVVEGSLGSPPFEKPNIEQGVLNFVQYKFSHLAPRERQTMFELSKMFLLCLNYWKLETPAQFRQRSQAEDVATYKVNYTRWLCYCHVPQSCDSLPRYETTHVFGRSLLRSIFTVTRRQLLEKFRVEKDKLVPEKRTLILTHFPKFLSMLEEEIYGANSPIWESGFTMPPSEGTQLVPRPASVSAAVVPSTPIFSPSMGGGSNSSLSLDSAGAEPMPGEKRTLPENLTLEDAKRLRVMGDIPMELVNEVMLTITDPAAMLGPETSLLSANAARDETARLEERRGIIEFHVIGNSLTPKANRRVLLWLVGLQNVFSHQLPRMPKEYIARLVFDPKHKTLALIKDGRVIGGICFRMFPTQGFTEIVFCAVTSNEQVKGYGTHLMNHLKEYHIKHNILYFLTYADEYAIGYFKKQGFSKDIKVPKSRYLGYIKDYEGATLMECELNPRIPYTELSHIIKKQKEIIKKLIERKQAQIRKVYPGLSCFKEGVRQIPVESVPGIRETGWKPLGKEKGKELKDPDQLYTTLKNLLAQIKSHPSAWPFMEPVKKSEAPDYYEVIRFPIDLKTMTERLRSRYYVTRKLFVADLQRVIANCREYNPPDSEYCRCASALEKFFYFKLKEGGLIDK
Protein cereblon/Histone acetyltransferase KAT2A (Homo sapiens), sequence (Q96SW2 whole entry partner): as the sequence (Q96SW2 whole entry, looked up) above
Protein cereblon/Bromodomain-containing protein 4 (Homo sapiens), sequence (Q96SW2 whole entry, looked up, other chains not shown): as the sequence (Q96SW2 whole entry, looked up) above

Emax [1]: 97%
Emax [2]: 81%
Compound: CN1C[C@H](Nc2cnn(C)c(=O)c2Br)C[C@H](c2ccc(C(=O)N(C)CCCN(C)c3ccc(CCCOc4cccc5c4C(=O)N(C4CCC(=O)NC4=O)C5=O)cc3)cc2)C1 (some centres not stated)

Emax [3]: 95%
Compound: Cc1sc2c(c1C)C(c1ccc(Cl)cc1)=N[C@@H](CC(=O)NCCCCNC(=O)COc1cccc3c1C(=O)N(C1CCC(=O)NC1=O)C3=O)c1nnc(C)n1-2 (some centres not stated)

Compound: CC[C@H](C(=O)N1CCCC[C@H]1C(=O)O[C@H](CCc1ccc(OC)c(OC)c1)c1ccccc1OCC(=O)NCCCCCCOc1cccc2c1C(=O)N(C1CCC(=O)NC1=O)C2=O)c1cc(OC)c(OC)c(OC)c1 (some centres not stated)
DC50 [4]: < 0.1 µM
Emax (Homo sapiens): 82%

Emax [5]: > 96%
Compound: Cc1ncsc1-c1ccc(CNC(=O)[C@@H]2C[C@@H](O)CN2C(=O)[C@@H](NC(=O)COCCOCCOCCNC(=O)C[C@@H]2N=C(c3ccc(Cl)cc3)c3c(sc(C)c3C)-n3c(C)nnc32)C(C)(C)C)cc1

Emax [6]: 87%
DC50 [7]: 0.0011 µM
Compound: NC(=O)c1c(-c2ccc(Oc3ccc(F)cc3F)cc2)nn([C@@H]2CCCN(C(=O)OCCOCCOCCOCCOCCOCCNc3cccc4c3C(=O)N(C3CCC(=O)NC3=O)C4=O)C2)c1N (some centres not stated)

Emax [8]: 80%
DC50 [9]: < 0.003 µM
Compound: CC/C(=C(\c1ccc(O)cc1)c1ccc(OCCN(C)C(=O)COCCOCCOCCOc2cccc(O[C@H]3C[C@@H](C(=O)N[C@@H]4CCCc5ccccc54)N(C(=O)[C@@H](NC(=O)[C@H](C)NC)C4CCCCC4)C3)c2)cc1)c1ccccc1

Emax [10]: > 99%
DC50 [11]: < 0.005 µM
Compound: Cc1ncsc1-c1ccc([C@H](C)NC(=O)[C@@H]2C[C@@H](O)CN2C(=O)[C@@H](NC(=O)COCCCOCCNC(=O)C[C@@H]2N=C(c3ccc(Cl)cc3)c3c(sc(C)c3C)-n3c(C)nnc32)C(C)(C)C)cc1

DC50 [12]: 0.1 µM
Emax [13]: 86%
Compound: COc1cc(/C=C2\SC(=O)N(CCOCCC(=O)N[C@H](C(=O)N3C[C@H](O)C[C@H]3C(=O)NCc3ccc(-c4scnc4C)cc3)C(C)(C)C)C2=O)ccc1Oc1ccc(C#N)cc1C(F)(F)F

Emax [14]: > 65%
Compound: O=C1CCC(N2C(=O)c3cccc(OCCCCCOc4ccc(CC(=O)Nc5cc(C6CCC6)[nH]n5)cc4)c3C2=O)C(=O)N1 (configuration not stated)

DC50 [15]: < 0.25 µM
Emax [16]: > 95%
Compound: CC(C)(C)c1cnc(CSc2cnc(NC(=O)C3CCN(CC(=O)NCCOCCOCCOCCNc4cccc5c4C(=O)N(C4CCC(=O)NC4=O)C5=O)CC3)s2)o1 (configuration not stated)
